Results taken from patent US5962682A, “Aryl- and hetaryl-sulfonamide derivatives, their preparation and their use as endothelin antagonists” (Hoffmann-La Roche Inc., priority 1994, dated 1999).

Columns and labels:
[1] = tested on: Isolated Rat Aorta Rings; experiment: Inhibition of Endothelin-Induced Contractions in Isolated Rat Aorta Rings; type: cell-based, rat (Wistar-Kyoto); details: for Kb: Rattus norvegicus, Table 2, text calls these the pA2 values, endothelin-1 contraction, endothelium removed, 37° C, 10 min preincubation, read-out: Dosage ratio (switch to the right) (converted)
Description: III. Inhibition of Endothelin-Induced Contractions in Isolated Rat Aorta Rings
Rings with a length of 5 mm were cut out from the thorax aorta of adult Wistar-Kyoto rats. The endothelium was removed by lightly rubbing the internal surface. Each ring was immersed at 37° C. in 10 ml of Krebs-Henseleit solution in an isolated bath while gassing with 95% O2 and 5% CO2. The isometric stretching of the rings was measured. The rings were stretched to a pretension of 3 g. After incubation for 10 minutes with the test compound or vehicle cumulative dosages of endothelin-1 were added. The activity of the test compound was ascertained by the observed shift to the right of the dosage-activity curve of endothelin-1 in the presence of different concentrations of antagonist. This shift to the right (or "dose ratio", DR) corresponds to the quotient from the EC50 values of endothelin-1 in the presence and in the absence of antagonist, with the EC50 value denoting the endothelin concentration required for a half-maximum contraction.
The corresponding PA2 value, which is a measure of the activity of the test compound, was calculated using a computer programme according to the following equation from the "dose ratio" DR for each individual dosage-activity curve.
pA2 =log(DR-1)-log(antagonist-concentration)
The EC50 of endothelin in the absence of test compounds is 0.3 nM.

[2] = molecular target: T1, human ETA receptors (Homo sapiens, UniProt P25101); experiment: Inhibition of Endothelin Binding to Recombinant ETA Receptors; details: inhibition of 50% of the specific binding of 125I-endothelin (20 pM), baculovirus-insect cell membranes
T1 construct: made in house
T1 sequence (P25101 21-427): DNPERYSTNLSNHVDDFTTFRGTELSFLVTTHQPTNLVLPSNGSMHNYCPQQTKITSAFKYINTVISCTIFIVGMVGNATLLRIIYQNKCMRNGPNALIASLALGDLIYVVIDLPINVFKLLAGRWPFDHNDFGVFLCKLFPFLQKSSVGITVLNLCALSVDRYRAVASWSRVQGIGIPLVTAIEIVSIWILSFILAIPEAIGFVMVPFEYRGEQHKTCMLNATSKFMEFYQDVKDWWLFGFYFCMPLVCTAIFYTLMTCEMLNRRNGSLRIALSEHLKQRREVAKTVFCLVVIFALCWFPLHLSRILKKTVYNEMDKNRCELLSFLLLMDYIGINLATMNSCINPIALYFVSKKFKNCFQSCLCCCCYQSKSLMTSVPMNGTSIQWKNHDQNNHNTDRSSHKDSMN
Description: I: Inhibition of Endothelin Binding to Recombinant ETA Receptors
A cDNA coding for human ETA receptors of human placenta was cloned (M. Adachi, Y.-Y. Yang, Y. Furuichi and C. Miyamoto, BBRC 180, 1265-1272) and expressed in the baculovirus-insect cell system. Baculovirus-infected insect cells from a 23 l fermenter are centrifuged off (3000×g, 15 minutes, 4° C.) 60 hours after the infection, re-suspended in Tris buffer (5 mM, pH 7.4, 1 mM MgCl2) and again centrifuged. After a further re-suspension and centrifugation the cells are suspended in 800 ml of the same buffer and […] at -120° C. The cells disintegrate when the suspension in this hypotonic buffer mixture is thawed. After a repeated freeze-drying/thawing cycle the suspension is homogenized and centrifuged (25000×g, 15 minutes, 4° C.). After suspension in Tris buffer (75 mM, pH 7.4, 25 mM MgCl2, 250 mM saccharose) 1 ml aliquots (protein content about 3.5 mg/ml) are stored at -85° C.
(§1) For the binding assay, the freeze-dried membrane preparations are thawed and, after centrifugation at 20° C. and 25000 g for 10 minutes, re-suspended in assay buffer (50 mM Tris buffer, pH 7.4, containing 25 mM MnCl2, 1 mM EDTA and 0.5% bovine serum albumin). 100 μl of this membrane suspension containing 5 μg of protein are incubated with 50 μl of ^125 I-endothelin (specific activity 2200 Ci/mMol) in assay buffer (25000 cpm, final concentration 20 pM) and 100 μl of assay buffer containing varying concentrations of test compound. The incubation is carried out at 20° C. for 2 hours or at 4° C. for 24 hours. The separation of free and membrane-bound radio-ligands is carried out by filtration over a glass fibre filter.
(§2) The inhibitory activity on ETA and ETB receptors of compounds of formula I determined in these test procedures is given in Table 1 as the IC50, i.e. as the concentration [μM] which is required to inhibit 50% of the specific binding of ^125 I-endothelin.

[3] = molecular target: T2, ETB receptor (Homo sapiens, UniProt P24530); experiment: Inhibition of Endothelin Binding to Human Placenta Membranes (ETB receptor); details: inhibition of 50% of the specific binding of 125I-endothelin (20 pM)
T2 construct: Human placenta is homogenized in 5 mM Tris buffer; from tissue; host or cells: human placenta membranes
T2 sequence (P24530 27-442): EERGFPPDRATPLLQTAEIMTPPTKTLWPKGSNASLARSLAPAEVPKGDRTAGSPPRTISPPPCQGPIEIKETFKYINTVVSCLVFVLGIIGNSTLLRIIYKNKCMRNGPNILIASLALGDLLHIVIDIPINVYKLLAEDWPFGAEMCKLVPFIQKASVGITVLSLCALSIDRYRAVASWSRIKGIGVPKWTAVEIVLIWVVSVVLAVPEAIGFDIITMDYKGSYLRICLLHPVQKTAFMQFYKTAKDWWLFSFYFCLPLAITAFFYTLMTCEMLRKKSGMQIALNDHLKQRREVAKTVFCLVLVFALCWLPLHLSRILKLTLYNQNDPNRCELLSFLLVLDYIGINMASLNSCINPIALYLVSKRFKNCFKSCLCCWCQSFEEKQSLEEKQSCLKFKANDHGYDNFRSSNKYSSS
Description: II: Inhibition of Endothelin Binding to Human Placenta Membranes (ETB receptor) (see. Life Sci 44:1429 (1989))
Human placenta is homogenized in 5 mM Tris buffer, pH 7.4, which contains 1 mM MgCl2 and 250 mM sucrose. The homogenizate is centrifuged at 4° C. and 3000 g for 15 minutes, the supernatant containing the plasma membrane fraction is centrifuged at 72000 g for 30 minutes and the precipitate is washed with 75 mM Tris buffer, pH 7.4, which contains 25 mM MgCl2. Thereafter, precipitate obtained from in each case 10 g of original tissue is suspended in 1 ml of 75 mM Tris buffer, pH 7.4, containing 25 mM MgCl2 and 250 mM sucrose, and freeze-dried at -20° C. in 1 ml aliquots.
as §1, with “containing 35” for “containing 5”, “with” for “with 50”
as §2

Q: Which EC50 ([1]; half-maximum contraction, absence of test compounds) does the source give for “endothelin: endothelin-1, contracting agonist added in cumulative dosages to rat aorta rings [reference compound]” here?
A: 0.3 nM

Q: How did the IC50 [2] turn out when COc1ccccc1Oc1c(NS(=O)(=O)c2ccc(C(C)C)cn2)cc(C(=O)N2CCOCC2)cc1OCCOC(=O)Nc1ccccn1 [Example 31, pyridin-2-yl-carbamicacid 2-[3-(5-isopropyl-pyridine-2-sulphonylamino)-2-(2-methoxy-phenoxy)-5(morpholine-4-carbonyl)-phenoxy]-ethyl ester] was run?
A: 6 nM

Q: And the IC50 [3]?
A: 850 nM

Q: What does the source list for COc1cccc(Oc2c(NS(=O)(=O)c3ccc(SC)cc3)cc(C(=O)Nc3ccccc3)cc2OCCO)c1 [Example 105, 3-(2-hydroxy-ethoxy)-4-(3-methoxy-phenoxy)-5-(4-methylsulphanyl-benzenesulphonyl-amino)-N-phenyl-benzamide]?
A: IC50 [2]: > 100000 nM; IC50 [3]: 15 nM

Q: What does the source list for COc1ccccc1Oc1c(NS(=O)(=O)c2ccc(C(C)C)cn2)cc(C(=O)N2CCN(C)CC2)cc1OCCOC(=O)Nc1ccccn1 [Example 33, pyridin-2-yl-carbamic acid 2-[3-(5-isopropyl-pyridine-2-sulphonylamino)-2-(2-methoxy-phenoxy)-5-(4-methyl-piperazine-1-carbonyl)-phenoxy]-ethyl ester]?
A: IC50 [2]: 10 nM; IC50 [3]: 440 nM; Kb [1]: 39.8 nM

Q: For COc1cccc(Oc2c(NS(=O)(=O)c3ccc(C(C)(C)C)cc3)cc(C(=O)Nc3ccccc3)cc2OCCO)c1 [Example 89, 3-(4-tert-butylbenzenesulphonylamino)-5-(2-hydroxy-ethoxy)-4-(3-methoxy-phenoxy)-N-phenyl-benzamide], which IC50 [2] is on record?
A: > 100000 nM

Q: What about the IC50 [3] of the same compound?
A: 65 nM

Q: What does the source list for CCOC(=O)N1CCN(C(=O)c2cc(NS(=O)(=O)c3ccc(C(C)C)cn3)c(Oc3ccccc3OC)c(OCCOC(=O)Nc3ccccn3)c2)CC1 [Example 36, ethyl 4-{3-(5-iso-propyl-pyridine-2-sulphonylamino)-4-(2-methoxy-phenoxy)-5-[2-(pyridin-2-ylcarbamoyloxy)-ethoxy]-benzoyl}-piperazine-1-carboxylate]?
A: IC50 [2]: 2 nM; IC50 [3]: 650 nM; Kb [1]: 6.31 nM

Q: What does the source list for COc1ccc(Cl)c(Oc2c(NS(=O)(=O)c3ccc(C(F)(F)F)cc3)cc(C(=O)Nc3ccccc3)cc2OCCO)c1 [Example 85, 4-(2-chloro-5-methoxy-phenoxy)-3-(2-hydroxy-ethoxy)-N-phenyl-5-(4-trifluoromethyl-benzenesulphonylamino)-benzamide]?
A: IC50 [2]: 86000 nM; IC50 [3]: 20 nM
